This is an account of results in publication PMC10942119, “S-nitrosylation of a receptor-like cytoplasmic kinase regulates plant immunity” (Science Advances, 2024).

The target in assay [1] is T1, BIK1 (MBP-BIK1) (Arabidopsis thaliana, UniProt O48814, K105E).
T1 construct: coding region of BIK1, HisMBP-tagged (pDEST-HisMBP; a 6xHis version from pDEST17 was also made), tag kept, E. coli BL21(DE3)
T1 sequence (O48814 1-395 K105E): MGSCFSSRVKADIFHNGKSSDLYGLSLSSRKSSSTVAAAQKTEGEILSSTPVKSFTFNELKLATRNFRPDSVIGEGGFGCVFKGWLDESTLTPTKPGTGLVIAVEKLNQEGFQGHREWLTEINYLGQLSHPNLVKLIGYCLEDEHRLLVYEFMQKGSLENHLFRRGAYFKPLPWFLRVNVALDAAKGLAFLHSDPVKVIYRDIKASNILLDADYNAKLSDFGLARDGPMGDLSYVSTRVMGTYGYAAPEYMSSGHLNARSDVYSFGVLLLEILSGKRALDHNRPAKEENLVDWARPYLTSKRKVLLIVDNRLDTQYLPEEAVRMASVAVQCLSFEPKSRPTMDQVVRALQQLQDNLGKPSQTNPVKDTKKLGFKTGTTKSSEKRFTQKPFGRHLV
Briefly: biotin switch. In kind it is binding. The note with it: covalent; NO donor (donor not named for this figure; GSNO in the same passage); kinase-dead mutant, GSNO gave no autophosphorylation.

Assay [2] concerns the target T2, BIK1 (MBP-BIK1) (Arabidopsis thaliana, UniProt O48814).
T2 construct: coding region of BIK1, HisMBP-tagged (pDEST-HisMBP; a 6xHis version from pDEST17 was also made), tag kept, E. coli BL21(DE3)
T2 sequence (O48814 1-395): T1 sequence (O48814 1-395 K105E) with E105K
Briefly: biotin switch (anti-biotin Western blot); in vitro autophosphorylation assay. In kind it is biochemical. The note with it: covalent; NO donor, S-nitrosylates cysteine, reversed by DTT; raises autophosphorylation; HEN buffer pH 7.7, 30 min, dark. In general terms: A western blot detects proteins with antibodies after separation by electrophoresis.

Assay [3] concerns the target T2, BIK1 (MBP-BIK1). Briefly: biotin switch. The settings on record: covalent; NO donor, S-nitrosylates cysteine; HEN buffer pH 7.7, 30 min, dark. In kind it is binding.
Assay [4] addresses T3, MBP-BIK1 (recombinant botrytis-induced kinase 1 fused to maltose binding protein) (Arabidopsis (Col-0 cDNA), UniProt O48814 1-395).
T3 construct: botrytis-induced kinase 1 (BIK1), Arabidopsis; coding region amplified from Col-0 cDNA; The text calls the protein in the pull-down pBIK1 as well; a phosphorylation state of the recombinant protein is not defined; also called recombinant BIK1; pDEST-HisMBP-BIK1; source: E. coli BL21(DE3), purified (amylose magnetic beads)
T3 sequence (looked up): T1 sequence (O48814 1-395 K105E) with E105K
The assay can be described thus: pull-down; GST-RB-N on Glutathione Sepharose 4B incubated with MBP or MBP-BIK1 (untreated or pretreated with 10 uM GSNO or 100 uM DTT); 30 mM Hepes, 100 mM NaCl, 0.2% Triton X-100, pH 7.5; 4°C, 4 hours, dark; anti-MBP immunoblot. The note with it: both partners purified.

Assay [5] addresses T4, GSNO-pretreated MBP-BIK1 (S-nitrosylated BIK1, BIK1-SNO) (Arabidopsis (Col-0 cDNA), UniProt O48814 1-395, S-nitrosylation by GSNO pre-treatment; the paper assigns S-nitrosylation to Cys80).
T4 construct: botrytis-induced kinase 1 (BIK1), Arabidopsis; coding region amplified from Col-0 cDNA; same construct as m1; Same protein as m1 after treatment with the NO donor; which cysteines carried SNO in this sample was not determined in the pull-down itself
T4 sequence (looked up): T1 sequence (O48814 1-395 K105E) with E105K
Described as above. The settings on record: both partners purified.

Numbering of substitutions follows the chain as printed.

Take `N[C@@H](CCC(=O)N[C@@H](CSN=O)C(=O)NCC(=O)O)C(=O)O` [GSNO]: on BIK1 (MBP-BIK1) [1], the biotin switch result was “NO induced S-nitrosylation of BIK1^K105E (fig. S6F)”. On BIK1 (MBP-BIK1) [2], the “biotin switch (anti-biotin Western blot); in vitro autophosphorylation assay” value is “BIK1 was S-nitrosylated in a concentration-dependent fashion by GSNO”.

Take `N[C@@H](CSN=O)C(=O)O` [Cys-NO]: the biotin switch result at BIK1 (MBP-BIK1) [3] is recorded as “The natural NO donor, Cys-NO, also S-nitrosylated BIK1 in vitro”.

B1: GST-RBOHD-N (GST-tagged N terminus of respiratory burst oxidase homolog D) (domain or fragment, Arabidopsis, UniProt Q9FIJ0 1-376, looked up)
chain: MKMRRGNSSNDHELGILRGANSDTNSDTESIASDRGAFSGPLGRPKRASKKNARFADDLPKRSNSVAGGRGDDDEYVEITLDIRDDSVAVHSVQQAAGGGGHLEDPELALLTKKTLESSLNNTTSLSFFRSTSSRIKNASRELRRVFSRRPSPAVRRFDRTSSAAIHALKGLKFIATKTAAWPAVDQRFDKLSADSNGLLLSAKFWECLGMNKESKDFADQLFRALARRNNVSGDAITKEQLRIFWEQISDESFDAKLQVFFDMVDKDEDGRVTEEEVAEIISLSASANKLSNIQKQAKEYAALIMEELDPDNAGFIMIENLEMLLLQAPNQSVRMGDSRILSQMLSQKLRPAKESNPLVRWSEKIKYFILDNWQR
notes: respiratory burst oxidase homolog D (RBOHD), Arabidopsis; 1128 bp make 376 codons; also called GST-RB-N; N-RBOHD; source: E. coli BL21(DE3), purified (Glutathione Sepharose 4B)
Regarding B1, the binding result in assay [4] and in assay [5] was “binds” each time.
